Data reported in patent US5773430A, “Serine proteinase inhibitory activity by hydrophobic tetracycline” (Research Foundation of State University of New York, priority 1997, dated 1998).
“Also recorded” adds a separate entry of the source. Read-outs that look alike come from different tables or passages of the source.

Assays:
[1] = test system: human neutrophils (live PMN's); assay: Neutrophil (PMN + 0.5 nM PMA)-mediated R22-ECM hydrolysis (3H-proline cpm released in 6 h); type: cell-based; details: for ECM HYDROLYSIS (% CONTROL) / activity at 5 µM / activity at 25 µM / activity at 50 µM: control = hydrolysis in absence of any inhibitor normalized to 100%, 6 h at 37° C.; for activity at 5 µM / activity at 25 µM / activity at 50 µM: Homo sapiens, Neutrophil; for inhibition of ECM degradation, in words: 5-50 μM, Table 1 and FIG. 1
From the text: The activity of various tetracyclines was investigated employing an in vitro assay of inflammatory tissue injury in which human neutrophils are allowed to degrade a biosynthetically prepared complete interstitial stromal extracellular matrix (ECM). A neutrophil is one type of leukocyte (polymorphonuclear leukocyte). […] E. J. Roemer, K. J. Stanton, and S. R. Simon, "In Vitro Assay Systems for Inflammatory Cell-Mediated Damage to Interstitial Extracellular Matrix," In Vitro Toxicol. 7,75-81 (1994); E. J. Roemer, K. J. Stanton, and S. R. Simon, "In Vitro Assay Systems for Cell Interactions With Interstitial Extracellular Matrix," In Vitro Toxicol. 7,209-224 (1994).
The serine proteinase inhibiting activity of tetracyclines was tested using an in vitro assay of inflammatory tissue injury in which human neutrophils (live PMN's) were allowed to degrade a biosynthetically prepared complete interstitial stromal extracellular matrix (ECM) produced by cultured R22 rat heart smooth muscle cells as described by Roemer et al. (E. J. Roemer, K. J. Stanton, and S. R. Simon, "In Vitro Assay Systems for Inflammatory Cell-Mediated Damage to Interstitial Extracellular Matrix," In Vitro Toxicol. 7,75-81 (1994); E. J. Roemer, K. J. Stanton, and S. R. Simon, "In Vitro Assay Systems for Cell Interactions With Interstitial Extracellular Matrix," In Vitro Toxicol. 7,209-224 (1994)). Ten different chemically modified tetracyclines (CMTs) designated CMT-1 through CMT-10 and doxycycline, at concentrations ranging from 5 μM to 50 μM, were added to the ECM simultaneously with a suspension of 2×10^6 viable human PMN/mL in Hank's balanced salts solution (HBSS). In these studies, the ECM was metabolically radiolabeled with ^3 H-proline, and counts solubilized after six hours of incubation were measured and compared with counts released after incubation with PMN alone.

[2] = biological target: T1, human leukocyte elastase (HLE) (Homo sapiens, UniProt P08246); assay: HLE amidolytic activity (methoxysuccinyl-Ala-Ala-Pro-Val-p-nitroanilide); type: biochemical
T1 sequence (P08246 30-267): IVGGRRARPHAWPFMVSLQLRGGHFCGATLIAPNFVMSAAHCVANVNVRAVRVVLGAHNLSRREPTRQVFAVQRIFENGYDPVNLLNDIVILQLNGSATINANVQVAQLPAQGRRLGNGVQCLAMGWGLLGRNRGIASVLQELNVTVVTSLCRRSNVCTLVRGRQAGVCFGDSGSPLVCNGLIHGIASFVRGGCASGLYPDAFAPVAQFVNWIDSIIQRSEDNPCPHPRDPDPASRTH
From the text: This oligopeptide is generally assumed to occupy the first five subsites of the extended substrate binding domain in HLE.
To avoid time-dependent adsorption of HLE onto the wells of the 96-well microplates used in the amidolytic assays, the plates were pretreated with a solution of 0.2% bovine serum albumin. […] The […] concentration at which the Dixon plots intersect is a measure of Ki for the inhibitor.
The inhibitory activity of doxycycline towards amidolysis of methoxysuccinyl-Ala-Ala-Pro-Val-p-nitroanilide by HLE was also determined in the presence of 2% DMSO and no detergent, as described above for CMT-3.

leukocyte elastase = biological target: T2, leukocyte elastase (Homo sapiens, UniProt P08246); assay: Leukocyte elastase inhibitory activity; type: biochemical
T2 sequence (P08246 30-247): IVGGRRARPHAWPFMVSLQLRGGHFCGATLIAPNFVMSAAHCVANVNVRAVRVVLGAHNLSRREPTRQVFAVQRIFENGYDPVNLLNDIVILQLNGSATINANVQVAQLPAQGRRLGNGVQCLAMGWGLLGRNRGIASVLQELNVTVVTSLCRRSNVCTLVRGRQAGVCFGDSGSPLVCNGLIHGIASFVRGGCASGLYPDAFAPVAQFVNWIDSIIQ

MMP-8 = details: in vitro; read-out: K1, inhibition of MMP-8 activity in vitro; cited from earlier work
[3] = test system: human neutrophils (live PMN's); details: cited from earlier work

| Molecule | ECM HYDROLYSIS (% CONTROL) ([1]; 5 μm) | ECM HYDROLYSIS (% CONTROL) ([1]; 25 μm) | ECM HYDROLYSIS (% CONTROL) ([1]; 50 μm) | potency as inhibitors of the amidolytic activity of HLE, in words [2] | further results |
| --- | --- | --- | --- | --- | --- |
| CC1(O)c2cccc(O)c2C(=O)C2=C(O)C3(O)C(=O)C(C(N)=O)=C(O)CC3CC21 (centres unmarked) [CMT-1, 4-de(dimethylamino)tetracycline] | 93 | 95 | 90 | – | – |
| CN(C)C1C(=O)C(C#N)=C(O)C2(O)C(=O)C3=C(O)c4c(O)cccc4C(C)(O)C3CC12 (centres unmarked) [CMT-2, tetracyclinonitrile] | – | – | – | – | activity at 5 µM ([1]; 5 μm): 91%; activity at 25 µM ([1]; 25 μm): 95%; activity at 50 µM ([1]; 50 μm): 100% |
| CC1(O)c2c(Cl)ccc(O)c2C(=O)C2=C(O)C3(O)C(=O)C(C(N)=O)=C(O)CC3CC21 (centres unmarked) [CMT-4, 7-chloro-4-de(dimethylamino)tetracycline] | 90 | 98 | 130 | – | – |
| CC1(O)c2cccc(O)c2C(=O)C2=C(O)C3(O)C(=O)C(C(N)=O)=C(O)C(O)C3CC21 (centres unmarked) [CMT-6, 4-hydroxy-4-de(dimethylamino)tetracycline] | 109 | 101 | 97 | – | – |
| CC1(O)c2cccc(O)c2C(=O)C2=C(O)C3C(=O)C(C(N)=O)=C(O)CC3CC21 (stereo not drawn) [CMT-7, 4-de(dimethylamino)-12α-deoxytetracycline] | 97 | 84 | 100 | – | – |
| C[C@H]1c2cccc(O)c2C(O)=C2C(=O)[C@]3(O)C(O)=C(C(N)=O)C(=O)C[C@@H]3[C@@H](O)[C@@H]21 [CMT-8, 6-deoxy-5α-hydroxy-4-de(dimethylamino)tetracycline] | 96 | 82 | 57 | – | inhibition of ECM degradation, in words [1]: showed some inhibition of ECM degradation |
| Cc1c2c(c(O)c3c(O)cccc13)C(=O)C1C(O)=C(C(N)=O)C(=O)CC1C2 (stereo not drawn) [CMT-9, 4-de(dimethylamino)-12α-deoxyanhydrotetracycline] | – | – | – | – | activity at 5 µM ([1]; 5 μm): 88%; activity at 25 µM ([1]; 25 μm): 215%; activity at 50 µM ([1]; 50 μm): 190% |
| CN(C)c1ccc(O)c2c1C[C@H]1C[C@H]3CC(O)=C(C(N)=O)C(=O)[C@@]3(O)C(O)=C1C2=O [CMT-10, 4-de(dimethylamino)minocycline] | – | – | – | – | inhibition of ECM degradation, in words [1]: showed some inhibition of ECM degradation; activity at 5 µM ([1]; 5 μm): 101%; activity at 25 µM ([1]; 25 μm): 85%; activity at 50 µM ([1]; 50 μm): 80% |
| Cc1c2c(c(O)c3c(O)ccc(Cl)c13)C(=O)C1(O)C(O)=C(C(N)=O)C(=O)C(N(C)C)C1C2 (centres unmarked) [anhydrochlorotetracycline] | – | – | – | comparably low or no potency | – |
| CN(C)[C@@H]1C(O)=C(C(N)=O)C(=O)[C@@]2(O)C(O)=C3C(=O)c4c(O)ccc(Cl)c4[C@@](C)(O)[C@H]3C[C@@H]12 [chlorotetracycline] | – | – | – | comparably low or no potency | – |
| C[C@H]1c2cccc(O)c2C(=O)C2=C(O)[C@]3(O)C(=O)C(C(N)=O)=C(O)[C@@H](N(C)C)[C@@H]3[C@@H](O)[C@@H]21 [doxycycline] | – | – | – | only very weak inhibition; also recorded: only a very weak inhibitor of HLE | activity at 5 µM ([1]; 5 μm): 98%; activity at 25 µM ([1]; 25 μm): 92%; activity at 50 µM ([1]; 50 μm): 84%; Ki ([2]; 2% DMSO, no detergent, 100 μM through 300 μM substrate, Dixon plot, read-out: Ki for inhibition of amidolytic activity of HLE): ~300 µM; Ki ([2]; Dixon and Cornish-Bowden plots, FIGS. 3-5, read-out: apparent K1, inhibition of amidolysis): > 300 µM; leukocyte elastase inhibitory activity, in words (leukocyte elastase): do not exhibit substantial leukocyte elastase inhibitory activity; Ki (MMP-8): 25 to 50 µM |
| CN(C)C1C(=O)C(C(N)=O)=C(O)C2(O)C(=O)C3=C(O)c4c(O)ccc(Cl)c4C(C)(O)C3CC12 (stereo not drawn) [epi-chlorotetracycline] | – | – | – | comparably low or no potency | – |
| CN(C)c1ccc(O)c2c1C[C@H]1C[C@H]3[C@H](N(C)C)C(O)=C(C(N)=O)C(=O)[C@@]3(O)C(O)=C1C2=O [minocycline] | – | – | – | – | leukocyte elastase inhibitory activity, in words (leukocyte elastase): do not exhibit substantial leukocyte elastase inhibitory activity |
| CN(C)C1C(=O)C(C(N)=O)=C(O)C2(O)C(=O)C3=C(O)c4c(O)cccc4C(C)(O)C3C(O)C12 (centres unmarked) [oxytetracycline] | – | – | – | comparably low or no potency | – |
| tetracycline pyrazole [CMT-5] | 78 | 112 | 102 | comparably low or no potency | – |
| αhd 1-PI: the major endogenous inhibitor of human leukocyte elastase | – | – | – | – | neutrophil-mediated degradation of ECM, inhibition in words [3]: virtually completely inhibited |
